Test results published in US5654274A, “Biologically active peptides having N-terminal substitutions” (priority 1995, dated 1997).
Ends that are not written are not given here. Peptide text beside a SMILES is read from it. * marks the point of attachment. Octanoyl = CCCCCCCC(=O)*

What was measured:
Type in all cases: cell-based
C. albicans = test: MIC microtiter assay, C. albicans; details: Mueller Hinton broth, 16-20 hours at 37° C.
Description: (§1) Table I, which follows, indicates the Minimal Inhibitory Concentration (MIC) in μg/ml of various peptides, against S. aureus strain ATCC 25923(S), P. aeruginosa strain ATCC 27853(P), and E. coli ATCC strain 25922(E), and C. albicans (CA). […] The peptides ere unsubstituted at the N-terminal, substituted with an acetyl group at the N-terminal as indicated by Ac-; substituted with an octanoyl group at the N-terminal as indicated by Oct-, substituted with sphingosine as indicated by Sph-; substituted with a succinyl group, as indicated by Suc-; substituted with a hexanoyl group, as indicated by Hex-; substituted with a heptanoyl group, as indicated by Hep; substituted with a valeryl group, as indicated by Val-; substituted with, a myristryl group, as indicated by Myr-; or substituted with an ibuprofyl group, as indicated by Ibu-.
The procedure for the antibacterial assay is based upon the guidelines of the National Committee for Clinical Laboratory Standards, Document M7-T2, Volume 8, No. 8, 1988.
Stock solutions of peptides with and without the appropriate substitutions,are prepared at a concentration of 512 μg/ml in sterile deionized distilled water and stored at -70° C. Each peptide is a C-terminal amide.
The stock peptide solution is diluted in serial dilutions (1:2) down the wells of a microtiter plate so that the final concentrations of peptides in the wells are 0.25, 0.50, 1, 2, 4, 8, 16, 32, 64, 128, and 256 μg/ml. 1-5×10^5 CFUs/ml of either S. aureus ATCC 25923, E. coli ATCC 25922, P. aeruginosa ATCC 27853, or C. albicans, were added to the wells in full strength Mueller Hinton broth (BBL 11443) from a mid-log culture. The inoculum is standardized spectrophotometrically at 600 nm and is verified by colony counts. The plates are incubated for 16-20 hours at 37° C., and the minimal inhibitory concentration (MIC) for each peptide is determined. Minimal inhibitory concentration is defined as the lowest concentration of peptide which produces a clear well in the microtiter plate. […]

[1] = system: S. aureus strain ATCC 25923; test: Antibacterial MIC microtiter assay (NCCLS M7-T2), S. aureus; details: S. aureus ATCC 25923; Mueller Hinton broth, 16-20 hours at 37° C.
Description: as §1
(§2) The procedure for the antibacterial assay is based upon the guidelines of the National Committee for Clinical Laboratory Standards, Document M7-T2, Volume 8, No. 8, 1988. […]
(§3) The stock peptide solution is diluted in serial dilutions (1:2) down the wells of a microtiter plate so that the final concentrations of peptides in the wells are 0.25, 0.50, 1, 2, 4, 8, 16, 32, 64, 128, and 256 μg/ml. […] The plates are incubated for 16-20 hours at 37° C., and the minimal inhibitory concentration (MIC) for each peptide is determined. […]

[2] = system: P. aeruginosa strain ATCC 27853; test: Antibacterial MIC microtiter assay (NCCLS M7-T2), P. aeruginosa; details: P. aeruginosa ATCC 27853; Mueller Hinton broth, 16-20 hours at 37° C.
Description: as §1, §2, §3

[3] = system: E. coli ATCC strain 25922; test: Antibacterial MIC microtiter assay (NCCLS M7-T2), E. coli; details: E. coli ATCC 25922; Mueller Hinton broth, 16-20 hours at 37° C.
Description: as §1, §2, §3

P. gingivalis = test: Anaerobic antimicrobial susceptibility test (NCCLS M11-T2), P. gingivalis; details: 24-48 hours; for MIC P. gingivalis (strain) 9-14K-1: strain 9-14K-1, BHI broth; for MIC P. gingivalis (strain) 381: strain 381, BHI broth; for MIC P. gingivalis (strain) A7A1-28: strain A7A1-28, BHI broth; for MIC P. gingivalis (strain) FAY-19M-1: strain FAY-19M-1, BHI broth; for MIC P. gingivalis (strain) W50: strain W50, BHI broth
S. mutans = test: Anaerobic antimicrobial susceptibility test (NCCLS M11-T2), S. mutans; details: BHI broth, 24-48 hours
A. viscosus = test: Anaerobic antimicrobial susceptibility test (NCCLS M11-T2), A. viscosus; details: BHI broth, 24-48 hours

Compound	Minimal Inhibitory Concentration CA (C. albicans) [µg/mL]	Minimal Inhibitory Concentration S [1] [µg/mL]	Minimal Inhibitory Concentration P [2] [µg/mL]	Minimal Inhibitory Concentration E [3] [µg/mL]	MIC P. gingivalis (strain) 9-14K-1 (P. gingivalis) [μl/ml]	MIC P. gingivalis (strain) 381 (P. gingivalis) [μl/ml]	MIC P. gingivalis (strain) A7A1-28 (P. gingivalis) [μl/ml]	MIC P. gingivalis (strain) FAY-19M-1 (P. gingivalis)	MIC P. gingivalis (strain) W50 (P. gingivalis) [μl/ml]	MIC S. mutans (S. mutans) [μl/ml]	MIC A. viscos (A. viscosus) [μl/ml]
CCCCCCCC(=O)N[C@@H](CCCCN)C(=O)N[C@@H](Cc1c[nH]c2ccccc12)C(=O)N[C@@H](CCCCN)C(=O)N[C@@H](CC(C)C)C(=O)N[C@@H](Cc1ccccc1)C(=O)N[C@@H](CCCCN)C(=O)N[C@@H](CCCCN)C(=O)N[C@H](C(=O)N[C@@H](CCC(=O)O)C(=O)N[C@@H](CCCCN)C(=O)N[C@H](C(N)=O)C(C)C)[C@@H](C)CC [Oct-(SEQ ID NO: 136)-NH2] (Octanoyl-KWKLFKKIEKV-NH2)	128										
CCCCCCCC(=O)NCC(=O)N[C@H](C(=O)N[C@@H](CCCCN)C(=O)N[C@@H](CCCCN)C(=O)N[C@@H](Cc1ccccc1)C(=O)N[C@@H](CC(C)C)C(=O)N[C@@H](CCCCN)C(=O)N[C@@H](CCCCN)C(=O)N[C@@H](C)C(=O)NCC(=O)N[C@@H](CCCCN)C(=O)N[C@@H](Cc1ccccc1)C(=O)NCC(=O)N[C@@H](CCCCN)C(=O)N[C@@H](C)C(=O)N[C@@H](Cc1ccccc1)C(N)=O)[C@@H](C)CC [Oct-(SEQ ID NO: 149)-NH2] (Octanoyl-GIKKFLKKAGKFGKAF-NH2)	128										
(SEQ ID NO: 27)-OH: unsubstituted (Lys Ile Ala Gly Lys Ile Ala)3, C-terminal OH (KIAGKIAKIAGKIAKIAGKIA-OH)		128	128	8							
(SEQ ID NO: 86)-OH: unsubstituted (Lys Ile Ala Lys Lys Ile Ala)3, C-terminal OH (KIAKKIAKIAKKIAKIAKKIA-OH)	256	128	32	2	16	16	4	8 μl/ml	4	16	32
KIAKKIAKIAKKIAKIAKKIA-NH2 [(SEQ ID NO: 86)-NH2]					8	8	2	8,128 μl/ml	4	4	16
